Data: US20260022098A1, “BULLEYACONITINE A DERIVATIVE WITH ANALGESIC ACTIVITY, AND PREPARATION METHOD AND APPLICATION THEREOF” (priority 2023, published 2026)
Like-named read-outs stand apart in the source and are kept apart here. Marks after values point to notes of the source that are not given here.

Experiments:
Kunming mice [1] = assay: Analgesic activity by acetic acid-induced writhing method (writhing inhibition rate, ED50); assay type: in vivo; conditions: Mus musculus, sc; for inhibition in vivo at 0.05 mg/kg / inhibition in vivo at 0.5 mg/kg: read-out: Analgesia rate (%) ± SEM; for ED50: Probit regression, read-out: ED50
Procedure, shortened: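 Kunming mice (22±2 g, 1:1 sex, 12 h fasted, 10/group) got compound s.c. (dissolved 1:1 molar with 0.1 mol/L HCl, diluted in saline); 0.7% acetic acid i.p. 15 min later, writhes counted over 15 min. Inhibition rate vs saline blank; ED50 by Probit regression over ≥5 doses.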

Kunming mice [2] = assay: Acute toxicity / median lethal dose (LD50) determination, subcutaneous injection; assay type: in vivo; design: key to Acute toxicity: if death occurred, (+) represented as positive; if no death occurred, (−) represented as negative; conditions: mice administered 20 mg/kg subcutaneously, presence of death within 24 h
Procedure, shortened: (§1)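 Kunming mice (22±2 g, 1:1 male:female, fasted 12 h), 10 per group, given compound subcutaneously at 0.1 mL/10 g in saline after 1:1 molar dissolution in 0.1 mol/L HCl. At least 5 proportional dose groups set from a 20 mg/kg pilot; 24 h survival, LD50 by Probit regression.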

RAW 264.7 cells = assay: MTT assay, viability of RAW 264.7 cells; assay type: cell-based; conditions: compound diluted to 30 mol/L (so in the source), 12 h
Description: (§2) The effect of the compound to be tested on viability of RAW 264.7 cells at a concentration of […] was assessed through MTT assay (Methylthiazolyldiphenyl-tetrazolium bromide assay), and the inhibition on NO release in the inflammatory response of LPS-induced RAW 264.7 cells at 30 µM was determined through Griess method. Specific methods were described as follows.
An MTT solution (5 mg/mL) was prepared with a PBS buffer, filter-sterilized through a 0.22 μm filter membrane, and stored protected from light at low temperature. Each compound was dissolved in DMSO to prepare a 50 mmol/L stock solution, and stored from light at low (frozen) temperature. The stock solution was diluted to 30 mol/L with DMEM (Dulbecco's modified Eagle's medium) containing 10% FBS (fetal bovine serum). RAW264.7 cells beyond third passage were added to a culture medium and gently pipetted to detach, forming a cell suspension. 10 μL of the cell suspension was applied onto a hemocytometer slide for counting, and cells were seeded into 96-well plates at a density of 6×10^3 cells per well with 100 μL of the cell suspension per well. After incubated at 37° C. with 5% CO2 for 24 h, supernatant was removed. A zero-adjustment group (CO group) received 100 μL of medium per well, the blank group (CK group) received 100 μL of DMSO (1/1000 dilution) per well, and the experimental groups received 100 μL of the test samples per well. After 12 h, supernatant was removed, and […] of MTT solution was added into each well at 120 μL per well. After incubated in COz at a constant temperature for 4 h, supernatant was removed, and DMSO was added into each well by 150 μL per well. The mixture was shaken at 50 r/min for 10 min and subjected to an absorbance test at 492 nm. Relative cell viability (x) was calculated through a formula as follows: relative cell viability (%)=(ODTest−ODCO)/(ODCK−ODCO)×100%.

[3] = tested on: LPS-induced RAW 264.7 cells; assay: Griess assay, inhibition of NO release in LPS-induced RAW 264.7 cells; assay type: cell-based; conditions: Griess method, compound at 30 M (so in the source), 22 h
Description: as §2
RAW264.7 cells beyond third passage were added to a culture medium and gently pipetted to detach, forming a cell suspension. 10 μL of the cell suspension was applied onto a hemocytometer slide for counting, and cells were seeded into a 96-well plate at a density of 3×10^4 cells per well with 100 μL of the cell suspension per well. After incubated at 37° C. with […] for 24 h, supernatant was removed. The blank group received 100 μL of DMSO (1/1000 dilution) per well, a LPS (lipopolysaccharide) group received 100 μL of DMSO (1/1000 dilution) per well, and the experimental groups received 100 μL of the test samples per well. The LPS group received 1 μg/ml of LPS by […] per well, and the experimental groups received […] of LPS by 3 μg per well. After 22 h, 50 μL of supernatant was transferred into another 96-well plate, added with Griess Reagent I in a NO assay kit by 50 μL per well, then added with Griess Reagent II by 50 μL per well, and subjected to an absorbance test at 562 nm. Nitric oxide (NO) concentration was calculated based on a standard curve, which was specifically as follows: NO inhibition rate (%)=(ODLPS−ODTest)/(ODLPS−ODBlank)×100).

[4] = Acute toxicity / median lethal dose (LD50) determination, subcutaneous injection; assay type: in vivo, mice; design: key to Acute toxicity: if death occurred, (+) represented as positive; if no death occurred, (−) represented as negative; conditions: both sexes, Kunming, mouse, in vivo, sc; mice, subcutaneous, survival within 24 h, Probit regression; >X = no death or toxic symptoms at X mg/kg
Procedure, shortened: as §1

Kunming mice [5] = assay: Calculation of therapeutic index (TI = LD50/ED50); assay type: in vivo
Description: (3) Calculation of Therapeutic Index (TI)
The therapeutic index of each compound was calculated based on the median effective dose and the median lethal dose, which were specifically as follows: therapeutic index (TI)=median lethal dose (LD50)/median effective dose (ED50).

[6] = acetic acid-induced writhing, mice, subcutaneous
[7] = dosing concentration 0.05 mg/kg, subcutaneous, acetic acid-induced writhing, mice
[8] = dosing concentration 0.5 mg/kg, subcutaneous, acetic acid-induced writhing, mice

| Compound | inhibition in vivo at 0.05 mg/kg (Kunming mice [1]) [%] | inhibition in vivo at 0.5 mg/kg (Kunming mice [1]) [%] | Acute toxicity (Kunming mice [2]) | RAW cell viability (RAW 264.7 cells) | Inflammatory NO inhibition rate [3] [%] | ED50 (Kunming mice [1]; [6]) [mg/kg] | inhibition in vivo at 0.05 mg/kg (Kunming mice [1]; [7]) [%] | LD50 [4] [mg/kg] | TI (Kunming mice [5]) | inhibition in vivo at 0.5 mg/kg (Kunming mice [1]; [8]) [%] |
| --- | --- | --- | --- | --- | --- | --- | --- | --- | --- | --- |
| CCO[C@]12C[C@H](OC)[C@@]3(OC(=O)c4ccc([N+](=O)[O-])cc4)CC(C1[C@H]3OC(=O)c1ccc([N+](=O)[O-])cc1)[C@]13C4[C@@H](OC)C2[C@H]1N(CC)C[C@]4(COC)CC[C@@H]3OC (stereo partly shown) [Compound 38] | 42.4 ± 1.5 | 56.2 ± 1 | − | 99.37 ± 10.29 ns % | 23 ± 5.6 |  |  |  |  |  |
| CCO[C@]12C[C@H](OC)[C@@]3(OC(=O)C4CCCCC4)CC(C1[C@H]3OC(=O)C1CCCCC1)[C@]13C4[C@@H](OC)C2[C@H]1N(CC)C[C@]4(COC)CC[C@@H]3OC (stereo partly shown) [Compound 5] |  |  | − | 28.05 ± 4.84 % |  | 0.083 | 49.7 ± 1.1 | > 100 | >1204.8 |  |
| CCO[C@]12C[C@H](OC)[C@@]3(OC(=O)C4CCOCC4)CC(C1[C@H]3OC(=O)C1CCOCC1)[C@]13C4[C@@H](OC)C2[C@H]1N(CC)C[C@]4(COC)CC[C@@H]3OC (stereo partly shown) [Compound 23] |  |  | − | 81.35 ± 3.48 % |  | 0.073 | 57.9 ± 0.6 | > 100 | >1369.9 |  |
| CCO[C@]12C[C@H](OC)[C@@]3(OC(=O)c4ccc(Cl)cc4)CC(C1[C@H]3OC(=O)c1ccc(OC)cc1)[C@]13C4[C@@H](OC)C2[C@H]1N(CC)C[C@]4(COC)CC[C@@H]3OC (stereo partly shown) [Compound 83] |  |  | − | 85.21 ± 7.83 ^ % | 50 ± 4.52 | 0.146 | 47 ± 0.9 | 76.6 | 524.9 | 70.8 ± 1.2 |
| CCO[C@]12C[C@H](OC)[C@@]3(OC(=O)c4cccnc4)CC(C1[C@H]3OC(=O)c1cccnc1)[C@]13C4[C@@H](OC)C2[C@H]1N(CC)C[C@]4(COC)CC[C@@H]3OC (stereo partly shown) [Compound 27] |  |  | − | 87.20 ± 7.66 ^ % | 7 ± 2.16 | 0.033 | 62 ± 1.6 | > 600 | >18181.8 |  |
| CCO[C@]12C[C@H](OC)[C@@]3(OC(=O)c4cccs4)CC(C1[C@H]3OC(=O)c1cccs1)[C@]13C4[C@@H](OC)C2[C@H]1N(CC)C[C@]4(COC)CC[C@@H]3OC (stereo partly shown) [Compound 17] |  |  | − | 87.25 ± 2.09 ns % | 47 ± 3.49 |  | 44.44 ± 0.4 |  |  | 54.7 ± 1.5 |
| CCCC(=O)O[C@]12CC3C([C@H]1OC(=O)c1ccc(OC)cc1)[C@](OC(C)=O)(C[C@@H]2OC)C1[C@H](OC)C2[C@@]4(COC)CC[C@H](OC)[C@@]32[C@@H]1N(CC)C4 (stereo partly shown) [Compound 79] |  |  | − | 101.29 ± 2.63 ns % | 42 ± 4.69 |  | 37.9 ± 2 |  |  |  |
| CCO[C@]12C[C@H](OC)[C@@]3(OC(=O)c4ccc(OC)cc4)CC(C1[C@H]3OC(=O)c1ccc(OC)cc1)[C@]13C4[C@@H](OC)C2[C@H]1N(CC)C[C@]4(COC)CC[C@@H]3OC (stereo partly shown) [Compound 13] |  |  | − | 8.29 ± 2.8 % |  | 0.082 | 49.4 ± 1.3 | > 100 | >1219.5 |  |
| CCO[C@]12C[C@H](OC)[C@@]3(OC(=O)C4CCOCC4)CC(C1[C@H]3OC(=O)c1ccc(OC)cc1)[C@]13C4[C@@H](OC)C2[C@H]1N(CC)C[C@]4(COC)CC[C@@H]3OC (stereo partly shown) [Compound 24] |  |  | − | 94.97 ± 7.74 ns % | 8 ± 2.69 |  | 46.1 ± 1.7 |  |  | 50.9 ± 1.7 |
| CCO[C@]12C[C@H](OC)[C@@]3(OC(=O)c4ccccc4)CC(C1[C@H]3OC(=O)c1ccccc1)[C@]13C4[C@@H](OC)C2[C@H]1N(CC)C[C@]4(COC)CC[C@@H]3OC (stereo partly shown) [Compound 52] |  |  | − | 7.00 ± 0.98 % |  | 0.479 | 47 ± 1.8 | > 100 | >208.8 | 64.2 ± 1.3 |
| CCO[C@]12C[C@H](OC)[C@@]3(OC(=O)CC(C)(C)C)CC(C1[C@H]3OC(=O)c1ccc(OC)cc1)[C@]13C4[C@@H](OC)C2[C@H]1N(CC)C[C@]4(COC)CC[C@@H]3OC (stereo partly shown) [Compound 90] |  |  | − | 101.74 ± 7.63 ns % | 12 ± 4.85 |  | 41.9 ± 1.9 |  |  | 59 ± 0.8 |
| CCO[C@]12C[C@H](OC)[C@@]3(OC(=O)CC(C)(C)C)CC(C1[C@H]3OC(=O)CC(C)(C)C)[C@]13C4[C@@H](OC)C2[C@H]1N(CC)C[C@]4(COC)CC[C@@H]3OC (stereo partly shown) [Compound 88] |  |  | − | 74.05 ± 10.06 % |  | 0.161 | 47.7 ± 0.6 | > 100 | >621.1 | 65.07 ± 0.6 |
| CCN1C[C@]2(COC)CC[C@H](OC)[C@@]34C5C[C@]6(OC(=O)c7ccco7)[C@@H](OC)C[C@@](OC(C)=O)(C5[C@H]6OC(=O)c5ccc(OC)cc5)C([C@H](OC)C23)[C@@H]14 (stereo partly shown) [Compound 12] |  |  | − | 119.75 ± 1.11***^ % | 17 ± 5.14 |  | 45.7 ± 0.6 |  |  | 54.2 ± 1.4 |
| CCO[C@]12C[C@H](OC)[C@@]3(OC(=O)c4ccc(F)cc4)CC(C1[C@H]3OC(=O)c1ccc(F)cc1)[C@]13C4[C@@H](OC)C2[C@H]1N(CC)C[C@]4(COC)CC[C@@H]3OC (stereo partly shown) [Compound 59] |  |  | − | 7.00 ± 1.38 % |  |  | 43.5 ± 2.5 |  |  | 57.6 ± 0.9 |
| Cc1ccc(-c2cc(C(F)(F)F)nn2-c2ccc(S(N)(=O)=O)cc2)cc1 [Celecoxib, reference compound] |  |  |  | 93.09 ± 2.14 ns % | 74 ± 2.2 |  |  |  |  |  |
| CCO[C@]12C[C@H](OC)[C@@]3(OC(=O)c4ccc([N+](=O)[O-])cc4)CC(C1[C@H]3OC(=O)c1ccc(OC)cc1)[C@]13C4[C@@H](OC)C2[C@H]1N(CC)C[C@]4(COC)CC[C@@H]3OC (stereo partly shown) [Compound 39] |  |  | − | 6.97 ± 0.93 % |  | 0.195 | 51.1 ± 1.4 | > 100 | >512.8 |  |
